The values that follow come from PubChem BioAssay AID1259407 (Chemical Carcinogenesis Research Information System (CCRIS), 2018).

For this data set, the system named is CCRIS mutagenicity, Ames/micronucleus/aberration tests. As to the kind of experiment: CCRIS mutagenicity studies.
Setting [1] is: Test System: AMES SALMONELLA TYPHIMURIUM, Strain/Indicator: TA98, Metabolic Activation: NONE, Method: PREINCUBATION
[2] abbreviates: Test System: AMES SALMONELLA TYPHIMURIUM, Strain/Indicator: TA97, Metabolic Activation: NONE, Method: STANDARD PLATE.
The mark [3] stands for this setting: Test System: AMES SALMONELLA TYPHIMURIUM, Strain/Indicator: TA97, Metabolic Activation: RAT, LIVER, S-9, AROCLOR 1254, Method: STANDARD PLATE.
Where [4] appears, read: Test System: AMES SALMONELLA TYPHIMURIUM, Strain/Indicator: TA98, Metabolic Activation: NONE, Method: STANDARD PLATE.
The mark [5] stands for this setting: Test System: AMES SALMONELLA TYPHIMURIUM, Strain/Indicator: TA98, Metabolic Activation: RAT, LIVER, S-9, AROCLOR 1254, Method: STANDARD PLATE.
[6] abbreviates: Test System: AMES SALMONELLA TYPHIMURIUM, Strain/Indicator: TA100, Metabolic Activation: NONE, Method: STANDARD PLATE.
Where [7] appears, read: Test System: AMES SALMONELLA TYPHIMURIUM, Strain/Indicator: TA100, Metabolic Activation: RAT, LIVER, S-9, AROCLOR 1254, Method: STANDARD PLATE.
The mark [8] stands for this setting: Test System: AMES SALMONELLA TYPHIMURIUM, Strain/Indicator: TA104, Metabolic Activation: NONE, Method: STANDARD PLATE.
[9] abbreviates: Test System: AMES SALMONELLA TYPHIMURIUM, Strain/Indicator: TA104, Metabolic Activation: RAT, LIVER, S-9, AROCLOR 1254, Method: STANDARD PLATE.

Activity calls are given as the source filed them. The rule behind the calls is not given here.

For the molecule `O=[N+]([O-])c1ccc2c(c1)-c1ccccc1C2`, the mutagenic call by setting is: (End Point: IN VITRO CHROMOSOMAL ABERRATIONS, Test System: CHINESE HAMSTER LUNG (CHL) CELLS, Metabolic Activation: NONE) “inactive; negative”; (End Point: IN VITRO CHROMOSOMAL ABERRATIONS, Test System: CHINESE HAMSTER LUNG (CHL) CELLS, Metabolic Activation: RAT, LIVER, S-9, KC-400) “active; positive”; (Test System: AMES SALMONELLA TYPHIMURIUM, Strain/Indicator: TA98 (1,8-DNP6), Metabolic Activation: NONE, Method: PREINCUBATION) “active; positive”; (Test System: AMES SALMONELLA TYPHIMURIUM, Strain/Indicator: TA98(NR), Metabolic Activation: NONE, Method: PREINCUBATION) “active; positive”; (Test System: AMES SALMONELLA TYPHIMURIUM, Strain/Indicator: TA98(NR), Metabolic Activation: RAT LIVER S-9 (10%), Method: PREINCUBATION) “active; positive”; (Test System: AMES SALMONELLA TYPHIMURIUM, Strain/Indicator: TA98 (NR), Metabolic Activation: RAT LIVER S-9, 3-METHYLCHOLANTHRENE (10%), Method: PREINCUBATION) “active; positive”. Moreover, the mutagenic call by setting is: (Test System: AMES SALMONELLA TYPHIMURIUM, Strain/Indicator: TA98(NR), Metabolic Activation: RAT LIVER S-9, BETA-NAPHTHAFLAVONE (10%), Method: PREINCUBATION) “active; positive”; (Test System: AMES SALMONELLA TYPHIMURIUM, Strain/Indicator: TA98(NR), Metabolic Activation: RAT LIVER S-9, PCB (10%), Method: PREINCUBATION) “active; positive”; (Test System: AMES SALMONELLA TYPHIMURIUM, Strain/Indicator: TA98(NR), Metabolic Activation: RAT LIVER S-9, PHENOBARBITAL (10%), Method: PREINCUBATION) “active; positive”; under setting [1], “active; positive”.
For `CCC(=O)N(O)c1ccc(Cl)c(Cl)c1`, the mutagenic call was “inactive; negative” under setting [2]; “inactive; negative” under setting [3]; “inactive; negative” under setting [4]; “inactive; negative” under setting [5]; “inactive; negative” under setting [6]; “inactive; negative” under setting [7]. For the same molecule, the mutagenic call was “inactive; negative” under setting [8] and “inactive; negative” under setting [9].
In the case of `CCBr`, the mutagenic call reads like this: (End Point: IN VITRO CHROMOSOMAL ABERRATIONS, Test System: CHO CELLS, Metabolic Activation: NONE) “inactive; negative”; (End Point: IN VITRO CHROMOSOMAL ABERRATIONS, Test System: CHO CELLS, Metabolic Activation: RAT, LIVER, S-9, AROCLOR 1254) “inactive; negative”; (End Point: In vitro Micronucleus, Test System: Chinese Hamster Ovary (CHO-WBL) cells, Metabolic Activation: None) “inactive; negative”; under setting [2], “active; positive”; under setting [3], “active; positive”; (Test System: AMES SALMONELLA TYPHIMURIUM, Strain/Indicator: TA98, Metabolic Activation: HAMSTER, LIVER, S-9, AROCLOR 1254, Method: DESICCATOR) “inactive; negative”. Moreover, the mutagenic call is “inactive; negative” (Test System: AMES SALMONELLA TYPHIMURIUM, Strain/Indicator: TA98, Metabolic Activation: NONE, Method: DESICCATOR); “inactive; negative” under setting [4]; “inactive; negative” (Test System: AMES SALMONELLA TYPHIMURIUM, Strain/Indicator: TA98, Metabolic Activation: RAT, LIVER, S-9, AROCLOR 1254, Method: DESICCATOR); “active; positive” under setting [5]; “active; positive” (Test System: AMES SALMONELLA TYPHIMURIUM, Strain/Indicator: TA100, Metabolic Activation: HAMSTER, LIVER, S-9, AROCLOR 1254, Method: DESICCATOR); “active; positive” (Test System: AMES SALMONELLA TYPHIMURIUM, Strain/Indicator: TA100, Metabolic Activation: NONE, Method: DESICCATOR). Further, the mutagenic call is, setting by setting: under setting [6], “inactive; negative”; (Test System: AMES SALMONELLA TYPHIMURIUM, Strain/Indicator: TA100, Metabolic Activation: RAT, LIVER, S-9, AROCLOR 1254, Method: DESICCATOR) “active; positive”; under setting [7], “active; positive”; under setting [8], “inactive; negative”; under setting [9], “active; positive”.
On to `[Ru]`, for which the mutagenic call (End Point: In vitro chromosomal aberrations, Test System: Human lymphocytes, Metabolic Activation: None) is “inactive; negative. actual compound tested was cis(dichloro)tetraammonium ruthenium(iii)ch”.
In the case of `C=CCc1ccccc1OCC(O)CNC(C)C` (stereo not drawn), the mutagenic call by setting is: under setting [4], “inactive; negative”; under setting [5], “inactive; negative”; under setting [6], “inactive; negative”; under setting [7], “inactive; negative”.
Consider `COc1c(O)c2c(c3cc(C(=O)N4CCc5c4c(O)c(OC)c4[nH]c(C(=O)N6C[C@H]7C[C@@]78C6=CC(=O)c6[nH]cc(C)c68)cc54)[nH]c13)CCN2C(N)=O`, for which the mutagenic call runs as follows: under setting [4], “inactive; negative”; under setting [5], “inactive; negative”; under setting [6], “inactive; negative”; (Test System: CHINESE HAMSTER V-79, Strain/Indicator: V-79/6-THIOGUANINE, Metabolic Activation: NONE) “active; positive”.
For the molecule `O=[N+]([O-])/C=C/c1ccco1`, the mutagenic call is, setting by setting: (End Point: IN VITRO MICRONUCLEUS, Test System: HUMAN LYMPHOCYTES, Metabolic Activation: NONE) “inactive; negative”; (End Point: IN VITRO MICRONUCLEUS, Test System: HUMAN LYMPHOCYTES, Metabolic Activation: S-9) “inactive; negative”; (End Point: IN VIVO MICRONUCLEUS, Test System: BONE MARROW, Species: MOUSE, Strain/Sex: CD-1/MALE, Route: INTRAPERITONEAL) “inactive; negative”; under setting [1], “inactive; negative”.
